Results: US20130338190A1, “PHARMACEUTICALLY ACCEPTABLE SALT OF (E)-N-[4-[[3-CHLORO-4-(2-PYRIDYLMETHOXY)PHENYL]AMINO]-3-CYANO-7-ETHOXY-6-QUINOLYL]-3-[(2R)-1-METHYLPYRROLIDIN-2-YL]PROP-2-ENAMIDE, PREPARATION METHOD THEREOF, AND MEDICAL USE THEREOF” (priority 2011, published 2013)
Counter-ions that a name gives are not always drawn. Like-named read-outs stand apart in the source and are kept apart here.

Legend:
[1] = test system: human epidermoid carcinoma A431 cells, which have high expression of EGFR; assay: EGFR cell proliferation inhibition assay (SRB, 72 hours); assay type: cell-based; conditions: A431 cells, 72 hours, SRB, read-out: IC50 (EGFR/A431)
Protocol: The activity is represented by the IC50 value. The general procedures of the assay were as follows: the cancer cells A431 highly expressing EGFR were chosen and seeded in a 96-well cell culture plate at a suitable density (e.g., 5000 cells/mL medium). The cells were then incubated in a carbon dioxide incubator until they reached 85% confluence. Then, the cell culture medium was replaced by fresh medium containing the test compounds with serial dilutions (general 6 to 7 concentrations). The cells were put back in the incubator and cultured continuously for 72 hours. The activity of the test compounds for inhibiting the cell proliferation was determined by using a Sulforhodamine B (SRB) method. IC50 values were calculated by the rate of inhibition at various concentrations of the test compounds.

[2] = test system: human carcinoma SK-BR-3 cells, which have high expression of HER-2; assay: HER-2 cell activity assay (SRB, 96 hours); assay type: cell-based; conditions: read-out: IC50 (HER-2/SK-BR-3)
Source text: The following in vitro assay was to determine the activity of the compounds of the present invention for inhibiting the proliferation of human carcinoma SK-BR-3 cells, which have high expression of HER-2.
The following in vitro assay was to determine the activity of the test compounds for inhibiting the angiogenesis and proliferation of cancer cells, which have high expression of HER-2. The activity is represented by the IC50 value. The general procedure of the assay was as follows: the cancer cells line SK-BR-3 highly expressing HER-2 was chosen and the cells were seeded in a 96-well cell culture plate at a suitable density. The cells then were incubated in a carbon dioxide incubator until they reached 60% confluence. Then, the cell culture medium was replaced by fresh medium with the test compounds at various concentrations (6 to 7 concentrations). The cells were put back in the incubator and cultured continuously for 96 hours. The activity of the test compounds for inhibiting the cell proliferation was determined by using a Sulforhodamine B (SRB) method. IC50 values of test cells were calculated by the rate of inhibition at various concentrations of the test compounds.

HER-2 kinase = HER-2 kinase (Homo sapiens, UniProt P04626); assay: HER-2 kinase activity assay (time-resolved fluorescence); assay type: biochemical; conditions: table of the HER-2 kinase activity assay; human-derived recombinant HER-2 kinase, 20 μM ATP, 25° C., 45 minutes; read-out: IC50 (HER-2/SK-BR-3)
Protocol: The in vitro HER-2 kinase activity was tested by the following assay.
The following assay was used to determine the activity of the compounds of the present invention for inhibiting HER-2 kinase. The half maximal inhibitory concentration IC50 (the concentration of the test compound showing 50% inhibition of the enzyme activity) of each compound was determined by incubating several different concentrations of the test compounds with a specific enzyme and substrate. […] The HER-2 kinase activity was determined by using a time-resolved fluorescence method.

Solubility assay [3] = assay type: physicochemical
Protocol: According to the conventional solubility measurement, the solubility of a compound of formula (I) and salts thereof was determined in three different systems: water, physiological saline and methanol.

[4] = Pharmacokinetics assay in rats (LC/MS/MS of plasma); assay type: in vivo, Sprague Dawley (SD) rats; conditions: both sexes, Sprague-Dawley, rat, plasma, 25 mg/kg; for AUC(0-t): read-out: AUC0-t; for MRT: read-out: MRT; for Cmax: read-out: Cmax; for Vd/F: read-out: Vz/F; for bioavailability: oral absolute bioavailability, 25 mg/kg (calculated by the base part)
Protocol: The rats were used as test animals. The compound of formula (I) and other salts thereof were administrated intragastrically, and a maleate salt of the compound of formula (I) was injected into the tail vein to determine the drug concentration in plasma at different time points by an LC/MS/MS method. The pharmacokinetic behavior, characteristics and the oral absolute bioavailability of the present compounds were studied and evaluated in rats. […] 28 healthy adult Sprague Dawley (SD) rats, half male and half female, were purchased from SINO-BRITSH SIPPR/BK LAB. ANIMAL LTD., CO, License number: SCXK (Shanghai) 2008-0016, and divided into 7 groups (4 rats in each group). The intravenous injection group: a suitable amount of compounds was weighed, dissolved in DMSO and diluted with normal saline to the final volume. […] healthy adult SD rats, half male and half female, were divided into 7 groups (4 rats in each group). […] For the intravenous injection group, blood samples (0.2 mL) were taken from orbital sinus before administration and at 2 min, 15 min, 30 min, 1.0 […] and 36.0 h after administration, stored in heparinized tubes and centrifuged for 10 minutes at 3,500 rpm to separate blood plasma. The plasma samples were stored at -20° C. For the intragastrical administration group, blood samples were taken before administration and at 0.5, 1.0, 2.0, 3.0, 4.0, 6.0, 8.0, 12.0, 24.0 and 36.0 hours after administration. The method to treat the samples was the same as with the intravenous injection group. The rats were fed 2 hours after administration.

Solubility assay [5] = assay type: physicochemical; remark: listed apart in the source

Sequence of HER-2 kinase (P04626 23-1255): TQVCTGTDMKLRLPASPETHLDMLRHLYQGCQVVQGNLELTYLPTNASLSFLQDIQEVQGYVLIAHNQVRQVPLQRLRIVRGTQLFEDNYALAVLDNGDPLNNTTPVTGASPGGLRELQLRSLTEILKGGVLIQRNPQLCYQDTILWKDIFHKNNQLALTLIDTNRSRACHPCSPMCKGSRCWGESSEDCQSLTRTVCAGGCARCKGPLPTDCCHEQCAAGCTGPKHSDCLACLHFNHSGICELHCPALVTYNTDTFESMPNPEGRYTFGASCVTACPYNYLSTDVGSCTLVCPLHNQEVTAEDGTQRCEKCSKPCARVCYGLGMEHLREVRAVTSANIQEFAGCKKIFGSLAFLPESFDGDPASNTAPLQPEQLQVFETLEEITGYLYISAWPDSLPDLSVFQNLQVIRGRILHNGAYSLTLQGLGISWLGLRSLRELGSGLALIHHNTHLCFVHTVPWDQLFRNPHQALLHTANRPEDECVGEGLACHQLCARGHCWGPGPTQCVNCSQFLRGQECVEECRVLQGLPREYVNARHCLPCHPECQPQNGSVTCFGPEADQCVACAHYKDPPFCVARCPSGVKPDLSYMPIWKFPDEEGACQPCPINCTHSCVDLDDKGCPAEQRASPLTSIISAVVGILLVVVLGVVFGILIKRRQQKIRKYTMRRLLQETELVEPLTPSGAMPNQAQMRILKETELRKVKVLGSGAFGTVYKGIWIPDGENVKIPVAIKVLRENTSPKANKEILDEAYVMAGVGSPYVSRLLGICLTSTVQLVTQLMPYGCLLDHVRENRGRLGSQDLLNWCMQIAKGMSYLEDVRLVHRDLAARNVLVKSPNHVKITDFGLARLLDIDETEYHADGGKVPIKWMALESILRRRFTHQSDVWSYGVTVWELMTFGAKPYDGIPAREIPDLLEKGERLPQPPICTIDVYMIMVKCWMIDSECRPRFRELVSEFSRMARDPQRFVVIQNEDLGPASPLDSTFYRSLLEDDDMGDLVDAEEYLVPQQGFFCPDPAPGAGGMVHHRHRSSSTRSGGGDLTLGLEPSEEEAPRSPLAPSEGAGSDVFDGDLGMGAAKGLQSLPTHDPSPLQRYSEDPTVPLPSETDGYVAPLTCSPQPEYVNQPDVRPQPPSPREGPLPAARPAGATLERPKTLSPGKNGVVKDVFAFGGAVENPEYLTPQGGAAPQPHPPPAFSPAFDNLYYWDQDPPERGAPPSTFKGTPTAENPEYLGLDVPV

SMILES | IC50 (HER-2 kinase) | half-life ([4]; iv, vein (tail vein injection)) | AUC(0-t) ([4]; iv, vein (tail vein injection)) | MRT ([4]; iv, vein (tail vein injection)) | CL/F ([4]; po, gavage) | half-life ([4]; po, gavage) | AUC(0-t) ([4]; po, gavage) | Cmax ([4]; po, gavage) | MRT ([4]; po, gavage) | Vd/F ([4]; po, gavage) | bioavailability ([4]; po) | other results
CCOc1cc2ncc(C#N)c(Nc3ccc(OCc4ccccn4)c(Cl)c3)c2cc1NC(=O)/C=C/[C@H]1CCCN1C.Cc1ccc(S(=O)(=O)O)cc1 [Example 7, (E)-N-[4-[[3-chloro-4-(2-pyridylmethoxy)phenyl]amino]-3-cyano-7-ethoxy-6-quinolyl]-3-[(2R)-1-methylpyrrolidin-2-yl]prop-2-enamide p-toluenesulfonate] | 64 nM | 187 ± 22.2 min | 113000 ± 62100 ng·h/mL | 4.2 ± 0.99 h | 10.5 mL/min/kg | 211 ± 41.4 min | 44300 ± 16000 ng·h/mL | 5160 ± 1640 ng/mL | 7.9 ± 0.74 h | 3.23 ± 1.65 L/kg | 39.2% | IC50 ([1]; p-toluenesulfonate): 38 nM; IC50 ([2]; p-toluenesulfonate): 45 nM; solubility (Solubility assay [3]; physiological saline, saline or isotonic, physiological saline, read-out: Solubility Value, Physiological saline): 100 µg/mL; solubility (Solubility assay [3]; water, read-out: Solubility Value, Water): 5390 µg/mL; solubility (Solubility assay [5]; 0.1 M hydrochloric acid, simulated gastric fluid): 31.9 mg/mL
CCOc1cc2ncc(C#N)c(Nc3ccc(OCc4ccccn4)c(Cl)c3)c2cc1NC(=O)/C=C/[C@H]1CCCN1C [Example 9, (E)-N-[4-[[3-chloro-4-(2-pyridylmethoxy)phenyl]amino]-3-cyano-7-ethoxy-6-quinolyl]-3-[(2R)-1-methylpyrrolidin-2-yl]prop-2-enamide dihydrochloride] | 46 nM | 285 ± 19.2 min | 115000 ± 33100 ng·h/mL | 5.54 ± 0.58 h | 6.67 mL/min/kg | 208 ± 10.8 min | 66100 ± 17200 ng·h/mL | 5870 ± 1610 ng/mL | 7.96 ± 0.7 h | 1.99 ± 0.49 L/kg | 57.6% | IC50 ([1]; dihydrochloride): 49 nM; IC50 ([2]; dihydrochloride): 69 nM; Solubility Value, Physiological saline (Solubility assay [3]; physiological saline, dihydrochloride): 0.2 mg/mL; Solubility Value, Water (Solubility assay [3]; water, dihydrochloride): 0.15 mg/mL; Solubility Value, 0.1M Hydrochloric acid (Solubility assay [5]; 0.1M hydrochloric acid, dihydrochloride): 16.59 mg/mL
